Laboratory results taken from the supplement of paper PMC10307832.

Tests used:
Experiment in all cases: relative viability (nuclei count vs DMSO), 5 days (fraction); higher = more cells survive
NCI-H2009 = test system: NCI-H2009
Summary of the method: (§1)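 Lung cancer cell lines, seeded in 1536-well plates, were treated the following day by pin tool with a single drug or with five library-drug doses (not always all listed) in √10 steps on top of a fixed anchor-drug dose. Cells were fixed and nuclei stained in one step after 5 days, and nuclei were counted. Relative viability is the nuclei count for treated wells divided by that for vehicle wells, reported as medians of duplicate plates.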

NCI-H2085 = test system: NCI-H2085
Summary of the method: as §1

LU99A = test system: LU99A
Summary of the method: as §1

NCI-H650 = test system: NCI-H650
Summary of the method: as §1

NCI-H460 = test system: NCI-H460
Summary of the method: as §1

NCI-H2126 = test system: NCI-H2126
Summary of the method: as §1

HARA = test system: HARA
Summary of the method: as §1

NCI-H1993 = test system: NCI-H1993
Summary of the method: as §1

LC-2-ad = test system: LC-2-ad
Summary of the method: as §1

NCI-H838 = test system: NCI-H838
Summary of the method: as §1

HCC-78 = test system: HCC-78
Summary of the method: as §1

EPLC-272H = test system: EPLC-272H
Summary of the method: as §1

NCI-H2347 = test system: NCI-H2347
Summary of the method: as §1

UMC-11 = test system: UMC-11
Summary of the method: as §1

SW 1573 = test system: SW 1573
Summary of the method: as §1

PC-14 = test system: PC-14
Summary of the method: as §1

NCI-H1915 = test system: NCI-H1915
Summary of the method: as §1

ABC-1 = test system: ABC-1
Summary of the method: as §1

COR-L23 = test system: COR-L23
Summary of the method: as §1

NCI-H1651 = test system: NCI-H1651
Summary of the method: as §1

HCC-15 = test system: HCC-15
Summary of the method: as §1

NCI-H358 = test system: NCI-H358
Summary of the method: as §1

Work on `COc1cc(N2CCC(C(N)=O)CC2)ccc1Nc1nc(N)c(Cl)c(Nc2ccccc2S(=O)(=O)C(C)C)n1` [HG-5-88-01] + Cc1nc(NC(=O)N2CCC[C@H]2C(N)=O)sc1-c1ccnc(C(C)(C)C(F)(F)F)c1 [Alpelisib] (partner 2 µM) yielded a relative viability (NCI-H2009; first compound 0.04 µM) of 1.13, a relative viability (NCI-H2009; first compound 0.1265 µM) of 1.05 and a relative viability (NCI-H2009; first compound 0.4 µM) of 1.05. The relative viability (NCI-H2009; first compound 1.265 µM) was 1.17, the relative viability (NCI-H2009; first compound 4 µM) was 1.14 and the relative viability (NCI-H2085; first compound 0.04 µM) was 1.05. For the same compound, the relative viability (NCI-H2085; first compound 0.1265 µM) was 1, the relative viability (NCI-H2085; first compound 0.4 µM) was 0.908 and the relative viability (NCI-H2085; first compound 1.265 µM) was 0.973. The relative viability (NCI-H2085; first compound 4 µM) was 0.902, the relative viability (LU99A; first compound 0.04 µM) was 0.561 and the relative viability (LU99A; first compound 0.1265 µM) was 0.514. The relative viability (LU99A; first compound 0.4 µM) was 0.513, the relative viability (LU99A; first compound 1.265 µM) was 0.552 and the relative viability (LU99A; first compound 4 µM) was 0.422. The relative viability (NCI-H650; first compound 0.04 µM) was 0.689, the relative viability (NCI-H650; first compound 0.1265 µM) was 1.18 and the relative viability (NCI-H650; first compound 0.4 µM) was 1.04. For the same compound, the relative viability (NCI-H650; first compound 1.265 µM) was 0.816, the relative viability (NCI-H650; first compound 4 µM) was 0.8 and the relative viability (NCI-H460; first compound 0.04 µM) was 0.466. For the same compound, the relative viability (NCI-H460; first compound 0.1265 µM) was 0.461, the relative viability (NCI-H460; first compound 0.4 µM) was 0.461 and the relative viability (NCI-H460; first compound 1.265 µM) was 0.335. The relative viability (NCI-H460; first compound 4 µM) was 0.304, the relative viability (NCI-H2126; first compound 0.04 µM) was 0.81 and the relative viability (NCI-H2126; first compound 0.1265 µM) was 0.79. The relative viability (NCI-H2126; first compound 0.4 µM) was 0.774, the relative viability (NCI-H2126; first compound 1.265 µM) was 0.681 and the relative viability (NCI-H2126; first compound 4 µM) was 0.716. The relative viability (HARA; first compound 0.04 µM) was 0.938, the relative viability (HARA; first compound 0.1265 µM) was 0.777 and the relative viability (HARA; first compound 0.4 µM) was 0.742. The relative viability (HARA; first compound 1.265 µM) was 0.779, the relative viability (HARA; first compound 4 µM) was 0.799 and the relative viability (NCI-H1993; first compound 0.04 µM) was 0.709. It also gave a relative viability (NCI-H1993; first compound 0.1265 µM) of 0.596, a relative viability (NCI-H1993; first compound 0.4 µM) of 0.566 and a relative viability (NCI-H1993; first compound 1.265 µM) of 0.682. For the same compound, the relative viability (NCI-H1993; first compound 4 µM) was 0.751, the relative viability (LC-2-ad; first compound 0.04 µM) was 0.91 and the relative viability (LC-2-ad; first compound 0.1265 µM) was 0.924. For the same compound, the relative viability (LC-2-ad; first compound 0.4 µM) was 0.84, the relative viability (LC-2-ad; first compound 1.265 µM) was 0.856 and the relative viability (LC-2-ad; first compound 4 µM) was 0.871. The relative viability (NCI-H838; first compound 0.04 µM) was 1, the relative viability (NCI-H838; first compound 0.1265 µM) was 1.1 and the relative viability (NCI-H838; first compound 0.4 µM) was 0.917. The relative viability (NCI-H838; first compound 1.265 µM) was 0.9, the relative viability (NCI-H838; first compound 4 µM) was 0.896 and the relative viability (HCC-78; first compound 0.04 µM) was 0.352. It also gave a relative viability (HCC-78; first compound 0.1265 µM) of 0.304, a relative viability (HCC-78; first compound 0.4 µM) of 0.263 and a relative viability (HCC-78; first compound 1.265 µM) of 0.207. For the same compound, the relative viability (HCC-78; first compound 4 µM) was 0.241, the relative viability (EPLC-272H; first compound 0.04 µM) was 0.931 and the relative viability (EPLC-272H; first compound 0.1265 µM) was 0.838. The relative viability (EPLC-272H; first compound 0.4 µM) was 1.12, the relative viability (EPLC-272H; first compound 1.265 µM) was 0.804 and the relative viability (EPLC-272H; first compound 4 µM) was 0.253. For the same compound, the relative viability (NCI-H2347; first compound 0.04 µM) was 1.09, the relative viability (NCI-H2347; first compound 0.1265 µM) was 1.14 and the relative viability (NCI-H2347; first compound 0.4 µM) was 1.1. The relative viability (NCI-H2347; first compound 1.265 µM) was 0.984, the relative viability (NCI-H2347; first compound 4 µM) was 0.973 and the relative viability (UMC-11; first compound 0.04 µM) was 1.01. It also gave a relative viability (UMC-11; first compound 0.1265 µM) of 1, a relative viability (UMC-11; first compound 0.4 µM) of 0.998 and a relative viability (UMC-11; first compound 1.265 µM) of 0.945. It also gave a relative viability (UMC-11; first compound 4 µM) of 0.954, a relative viability (SW 1573; first compound 0.04 µM) of 0.866 and a relative viability (SW 1573; first compound 0.1265 µM) of 0.571. It also gave a relative viability (SW 1573; first compound 0.4 µM) of 0.866, a relative viability (SW 1573; first compound 1.265 µM) of 0.632 and a relative viability (SW 1573; first compound 4 µM) of 0.605. It also gave a relative viability (PC-14; first compound 0.04 µM) of 0.884, a relative viability (PC-14; first compound 0.1265 µM) of 0.849 and a relative viability (PC-14; first compound 0.4 µM) of 0.882. For the same compound, the relative viability (PC-14; first compound 1.265 µM) was 0.89, the relative viability (PC-14; first compound 4 µM) was 0.851 and the relative viability (NCI-H1915; first compound 0.04 µM) was 1.08. It also gave a relative viability (NCI-H1915; first compound 0.1265 µM) of 1.03, a relative viability (NCI-H1915; first compound 0.4 µM) of 1.12 and a relative viability (NCI-H1915; first compound 1.265 µM) of 1.04. For the same compound, the relative viability (NCI-H1915; first compound 4 µM) was 0.958, the relative viability (ABC-1; first compound 0.04 µM) was 0.919 and the relative viability (ABC-1; first compound 0.1265 µM) was 0.885. For the same compound, the relative viability (ABC-1; first compound 0.4 µM) was 0.855, the relative viability (ABC-1; first compound 1.265 µM) was 0.713 and the relative viability (ABC-1; first compound 4 µM) was 0.993. For the same compound, the relative viability (COR-L23; first compound 0.04 µM) was 0.774, the relative viability (COR-L23; first compound 0.1265 µM) was 0.79 and the relative viability (COR-L23; first compound 0.4 µM) was 0.68. The relative viability (COR-L23; first compound 1.265 µM) was 0.524, the relative viability (COR-L23; first compound 4 µM) was 0.462 and the relative viability (NCI-H1651; first compound 0.04 µM) was 0.927. It also gave a relative viability (NCI-H1651; first compound 0.1265 µM) of 1, a relative viability (NCI-H1651; first compound 0.4 µM) of 0.962 and a relative viability (NCI-H1651; first compound 1.265 µM) of 0.906. The relative viability (NCI-H1651; first compound 4 µM) was 1.2, the relative viability (HCC-15; first compound 0.04 µM) was 0.925 and the relative viability (HCC-15; first compound 0.1265 µM) was 0.865. For the same compound, the relative viability (HCC-15; first compound 0.4 µM) was 0.936, the relative viability (HCC-15; first compound 1.265 µM) was 0.832 and the relative viability (HCC-15; first compound 4 µM) was 0.775. For the same compound, the relative viability (NCI-H358; first compound 0.04 µM) was 0.845, the relative viability (NCI-H358; first compound 0.1265 µM) was 0.692 and the relative viability (NCI-H358; first compound 0.4 µM) was 0.497. The relative viability (NCI-H358; first compound 1.265 µM) was 0.432 and the relative viability (NCI-H358; first compound 4 µM) was 0.323.
